Data published in US9587220B2, “Method for inducing cardiac differentiation of pluripotent stem cell” (Kyoto University, priority 2012, dated 2017).
Values joined by “and” are separate entries in the source; they are usually repeats but may differ in a detail not shown here. Identical values can stand only once.

Columns and labels:
[1] = tested on: hESC lines (KhES-1, KhES-3), monkey ESC line (CMK6.4), mouse ESC line (R1), hiPSC lines (IMR90-1, IMR90-4, 253G1, RCHIPC0003); assay: Beating cardiac colony ratio in a variety of PSC lines treated with KY02111 (serum-containing medium); assay type: cell-based, human; settings: KY02111 treatment, FIG. 1e
Procedure: All PSC lines were maintained on mitomycin C-treated mouse embryonic fibroblasts (MEF), in Primate ES Cell Culture Medium (ReproCELL Inc., Japan), with 5 ng ml^−1 bFGF for hPSCs, and without bFGF for monkey ESCs. Human ESC lines were KhES-1, KhES-3, H1, and H9 (Non-patent literatures 1, 41). Human iPSC lines were 253G1, IMR90-1, IMR90-4 (Non-patent literatures 42, 43), and RCHIPC0003. RCHIPC0003 was established from human fibroblasts by ReproCELL. The monkey ESC line was CMK6.4 (Non-patent literatures 1, 44, 45). The hESC line was used in conformity with the Guidelines for Derivation and Utilization of Human Embryonic Stem Cells of the Ministry of Education, Culture, Sports, Science, and Technology of Japan.
Confluent hESCs and hiPSCs were gently detached with CTK solution and transferred into Petri dishes (BD Biosciences) with Primate ES Cell Culture Medium (ReproCELL, Japan). Cells were held in suspension culture for 8-24 h to form aggregates. The sizes of hPSC aggregates (0.3-1 mm in diameter) are important for efficient differentiation. […] Beating colonies were counted on Day 9.

[2] = tested on: IMR90-1 hiPSCs; assay: Cardiac differentiation with BIO and CHIR99021 (Days 0-3) followed by WNT inhibitors, serum-free or serum medium; assay type: cell-based, human
Procedure: After pre-culture in Petri dishes as described above, cell aggregates were attached to culture dishes coated with gelatin (Sigma G2625) or human laminin 211 (BioLamina, Sweden) at 3-10×10^5 cells cm^-2, in serum-free cardiac differentiation medium: IMDM (Sigma) containing 1% MEM non-essential amino acid solution (Sigma), 1% Penicillin-Streptomycin (Gibco), 2 mM L-glutamine (Sigma), 0.5 mM L-carnitine (Sigma), 0.001% 2-Mercapcoethanol (Gibco), and 1-2% bovine serum albumin (Wako, Japan) or 0.4% human serum albumin (Sigma), with 5 μM CHIR99021 (Axon) and 2 μM BIO (Calbiochem). On Days 3-9, 10 μM KY02111 and/or other WNT inhibitors (XAV939 and/or IWP-2) were added to cell cultures, and the medium was changed every 2 d. On Day 15, the cardiac colonies were incubated with the protease solution for 5-10 min, until all colonies were detached from the bottom of the wells. The cardiac colonies were transferred into 15 ml tubes with cardiac differentiation medium including 0.1% albumin, and precipitated by gravity, the supernatant was removed, and the cardiac colonies were transferred to Ultra-low culture 6-well plates (Corning, YO-01835-24) with cardiac differentiation medium including 0.1% albumin. The floating cardiac colonies were maintained for more than 1 month, and the media were changed every 5 d. Cardiac colonies were dissociated by stirring for 1-2 h at 37° C. with the protease solution described above, cultured for 1 d on cover glasses coated with gelatin (Sigma), and fixed with 4% paraformaldehyde. After permeabilizing with Triton X, the cells were treated with 2% skim milk for 1-2 h, then incubated with primary antibodies for 2 h: NKX2.5 (rabbit polyclonal, 1:250; Abcam), αActinin (mouse monoclonal, 1:800; Sigma), cardiac TnT (mouse monoclonal, 1:100; Santa Cruz Biotechnology), Vimentin (mouse monoclonal, 1:800; Sigma V6630), and HCN4 (mouse monoclonal, 1:400; Abcam). The secondary antibodies used were Alexa546-conjugated anti-mouse IgG, Alexa488-conjugated anti-mouse IgG, and Alexa488-conjugated anti-rabbit IgG (1:1000; all from Molecular Probes, Invitrogen). Nuclei were visualized by DAPI. Images were captured under fluorescent microscopy (Olympus). The number of cTnT, αActinin, NKX2.5, HCN4, and Vimentin-positive cells were counted from three random areas, using the Metamorph imaging system (Molecular Devices). Approximately 1000 DAPI-stained cells were used to calculate the proportion of immunopositive cells (the number of immunopositive cells divided by the number of DAPI-stained cells). […] Cells were analyzed using a FACS CantoII flow cytometer (BD Biosciences). Data was analyzed using […] software (BD Biosciences).

Structure (SMILES): COc1ccc(CCC(=O)Nc2nc3ccc(Cl)cc3s2)cc1OC [KY02111, 2-(3-(3,4-dimethoxyphenyl)propanamide)-6-chlorobenzothiazole]
- ratio of beating colonies per all of colonies on culture dish [1]: 60-94% and 70-90%
- number of beating colonies and total number of cardiomyocytes, defined medium (Alb) versus serum-containing medium (FBS) ([2]; FIG. 4e): increased more in defined medium (Alb)
- proportion of cTnT-positive cells by immunostaining ([2]; albumin (serum-free)): 93.3%±4.4
- differentiation efficiency (cTnT-positive cells) by FACS ([2]; cytokine- and serum-free conditions): 90.2%
- differentiation efficiency (cTnT-positive cells) ([2]; with serum (FBS)): 83.7%±8.0
